The values that follow come from patent publication US10772890B2, “Use of myeloperoxidase (MPO) inhibitors or pharmaceutically acceptable salts thereof to treat multiple system atrophy (MSA) 938” (ASTRAZENECA AB, priority 2007, dated 2020).

What all share (format): in vivo
Test [1] relates to MSA mice (tg+3NP). As to the kind of experiment: Neuropathology: immunohistochemistry and stereological neuron counts in MSA mouse model. As for the experimental part: (§1) A total of 30 (PLP)-α-synuclein transgenic mice were used. Animals were housed at 12/12 hours dark/light cycle with free access to food and water in the animal facility of the Innsbruck Medical University. All experiments were performed in accordance with the Austrian law and after permission for animal experiments of the Federal Ministry for Education, Science, and Culture of Austria.
(§2) Low dose group (n=10) MSA mice (tg+3NP) treated with 1-(2-Isopropoxyethyl)-2-thioxo-1,2,3,5-tetrahydro-pyrrolo[3,2-d]pyrimidin-4-one (Compound I; prepared by AstraZeneca), 2×6 μmol/kg p.o.
(§3) High dose group (n=10) MSA mice (tg+3NP) treated with Compound I (prepared by AstraZeneca), 2×180 μmol/kg, p.o.
1-(2-Isopropoxyethyl)-2-thioxo-1,2,3,5-tetrahydro-pyrrolo[3,2-d]pyrimidin-4-one (Compound I treatment) was started one week prior to the first 3NP intoxication and stopped three weeks after the first 3NP intoxication (see 3NP intoxication protocol below). Animals underwent behavioral tests during week 3-4 after the beginning of the experiment. On day 28 animals were perfused under deep thiopental anesthesia and the brains were collected for histopathological analysis of neuronal loss and gliosis.
Mice were intoxicated chronically with 3NP with slowly increasing doses of toxin according to a previously used scheme (i.e. 4×10 mg/kg, 4×20 mg/kg, 4×40 mg/kg, 4×50 mg/kg intraperitoneal injections every 12th hour for a period of 8 days) to model MSA (Stefanova N. et al. Am. J. Pathol. 2005; 166:869-76)
The drug and vehicle (0.1 mol/L meglumine with 20% w/v hydroxypropyl-β-cyclodextrin, pH 10.8) were stored at 4° C. […]
(§4) Stereology was applied using a computer-assisted image analysis system (Nikon E-800 microscope, CCD video camera, Optronics MicroFire, Goleta, USA; Stereo Investigator Software, MicroBrightField Europe e.K., Magdeburg, Germany). […] Purkinje cells were counted in a region outlined to include only the Purkinje cell layer as previously reported (German D C. et al. Neuroscience. 2001; 105:999-1005). All data were expressed as mean value±SEM. […]

In test [2] the test system is MSA mice (tg+3NP). As to the kind of experiment: Stride length test in MSA mouse model. The conditions noted are these: high dose 180 μmol/kg p.o. twice daily, FIG. 3. The protocol:
as §1, §2, §3
(§5) 1-(2-Isopropoxyethyl)-2-thioxo-1,2,3,5-tetrahydro-pyrrolo[3,2-d]pyrimidin-4-one (Compound I treatment) was started one week prior to the first 3NP intoxication and stopped three weeks after the first 3NP intoxication (see 3NP intoxication protocol below). […]
The stride length of the forelimbs and hindlimbs of the mice was measured after a habituation to the test for 3 days before its performance according to Fernagut et al. (Fernagut P O. et al. Neuroscience. 2002; 114:1005-17) with slight modification. […] After three runs, the stride length of the hindlimbs on each side was measured, excluding the beginning (7 cm) and the end (7 cm) of the run. The mean stride length for each limb was determined.

In test [3] the test system is MSA mice (tg+3NP). As to the kind of experiment: Open field activity (Flex Field Activity System) in MSA mouse model. Conditions: high dose 180 μmol/kg p.o. twice daily, FIG. 2. As for the experimental part: as §1, §2, §3
1-(2-Isopropoxyethyl)-2-thioxo-1,2,3,5-tetrahydro-pyrrolo[3,2-d]pyrimidin-4-one (Compound I treatment) was started one week prior to the first 3NP intoxication and stopped three weeks after the first 3NP intoxication (see 3NP intoxication protocol below). Animals underwent behavioral tests during week 3-4 after the beginning of the experiment. On day 28 animals were perfused under deep thiopental anesthesia and the brains were collected for histopathological analysis of neuronal loss and gliosis. […]

For test [4], the system named is MSA mice (tg+3NP). As to the kind of experiment: Motor clinical scale evaluation in MSA mouse model. Conditions: p.o. twice daily, compared to vehicle treated mice, FIG. 1. An excerpt: A novel mouse model of MSA has been developed by inducing oxidative stress in transgenic mice with oligodendroglial α-synuclein expression (described herein). This model reproduces the cardinal neuropathological features of the disease including striatonigral degeneration (SND), olivopontocerebellar atrophy (OPCA), astrogliosis and microgliosis combined with oligodendroglial insoluble α-synuclein inclusions. Mitochondrial inhibition by 3NP in the presence of glial cytoplasmic inclusions in transgenic mice induces a selective neuronal cell death pattern typical for MSA in these animals (Stefanova N. et al. Am. J. Pathol. 2005; 166:869-76).
Thus, in the present invention, MPO inhibitors have been use to suppress MPO activity in an MSA mouse model consisting of an oligodendroglial α-SYN overexpression in transgenic mice exposed to mitochondrial inhibition by 3-nitropropionic acid (3NP). The effects were followed by application of established immunohistological and behavioral methods to evaluate the participation of MPO in the pathogenesis of MSA and the possible neuroprotective effects of in an MSA model.
A total of 30 (PLP)-α-synuclein transgenic mice were used. Animals were housed at 12/12 hours dark/light cycle with free access to food and water in the animal facility of the Innsbruck Medical University. […]

Test [5] has as its system MSA mice (tg+3NP). As to the kind of experiment: Microglial activation (optical density) in substantia nigra and striatum of MSA mice. Conditions: high dose 180 μmol/kg p.o. twice daily, FIG. 6. As for the experimental part: as §1, §2, §3, §5, §4

For `CC(C)OCCn1c(=S)[nH]c(=O)c2[nH]ccc21` [Compound I, 1-(2-Isopropoxyethyl)-2-thioxo-1,2,3,5-tetrahydro-pyrrolo[3,2-d]pyrimidin-4-one], in test [1] (high dose 180 μmol/kg p.o. twice daily, FIG. 4), the “striatonigral degeneration (TH immunopositive cells in substantia nigra, dopaminergic terminals in striatum, striatal DARPP-32 immunoreactive neurons)” value is recorded as “neuroprotective”. For the same molecule, the “olivopontocerebellar atrophy (inferior olivary complex, pontine nuclei, Purkinje cells in the cerebellum)” value in test [1] (high dose 180 μmol/kg p.o. twice daily, FIG. 5) is listed as “neuroprotective”. The “neuroprotection (neurons preserved in substantia nigra pars compacta, striatum, cerebellar cortex, pontine nuclei, inferior olivary complex)” value in test [1] (summary of findings, dose not stated) is reported as “significant neuroprotection”. In test [2], the “stride length test performance (left and right hindlimbs)” value is “significant improvement”. Moreover, in test [3], the “flex field performance (rearing and open field activity)” value was “significant improvement”. Further, the “mean daily motor score” value in test [4] is given as “significant improvement”. Moreover, in test [5], the “microglial activation in substantia nigra and striatum” value is “suppression of microglial activation”.
